Earlier results, collected in patent publication US20030073580A1, “Composition for treating cells and method for qualitatively and quantitatively customizing the formulation thereof” (priority 2001, published 2003).
Read-outs that look alike come from different tables or passages of the source.

Tested on: plant leaves
[1] = Sulfate 0.1 Mg SO4/L (0.0334 milligrams elemental S)
[2] = Sulfate 1.0 Mg SO4/L (0.3340 milligrams elemental S)
[3] = Sulfate 10.0 Mg SO4/L (3.3400 milligrams elemental S)
[4] = Sulfate 50.0 Mg SO4/L (16.7000 milligrams elemental S)
[5] = Sulfate 200.0 Mg SO4/L (66.8000 milligrams elemental S)

S1SSSSSSS1 [sulfur]
free nitrate nitrogen in plant leaves (available sulfur approximately 16.7 mg per liter): zero | optimal concentration of available sulfur in a fertilizer mixture (concentration at which free nitrate drops to zero and organic sulfur and protein nitrogen reach their maximum): approximately 16.7 mg per liter

O=S(=O)(O)O [Sulfate]
Inorganic S [1]: 0.003 Percentage of Dry Weight | Leaf Dry Wt [1]: 1.1 g/plant | Nitrate N [1]: 1.39 Percentage of Dry Weight | Organic N [1]: 2.23 Percentage of Dry Weight | Organic S [1]: 0.11 Percentage of Dry Weight | Protein N [1]: 0.96 Percentage of Dry Weight | Inorganic S [2]: 0.003 Percentage of Dry Weight | Leaf Dry Wt [2]: 2.4 g/plant | Nitrate N [2]: 1.37 Percentage of Dry Weight | Organic N [2]: 2.21 Percentage of Dry Weight | Organic S [2]: 0.12 Percentage of Dry Weight | Protein N [2]: 1.28 Percentage of Dry Weight | Inorganic S [3]: 0.009 Percentage of Dry Weight | Leaf Dry Wt [3]: 3.4 g/plant | Nitrate N [3]: 0.06 Percentage of Dry Weight | Organic N [3]: 1.19 Percentage of Dry Weight | Organic S [3]: 0.17 Percentage of Dry Weight | Protein N [3]: 2.56 Percentage of Dry Weight | Inorganic S [4]: 0.100 Percentage of Dry Weight | Leaf Dry Wt [4]: 4.7 g/plant | Nitrate N [4]: 0.00 Percentage of Dry Weight | Organic N [4]: 0.51 Percentage of Dry Weight | Organic S [4]: 0.26 Percentage of Dry Weight | Protein N [4]: 3.25 Percentage of Dry Weight | Inorganic S [5]: 0.360 Percentage of Dry Weight | Leaf Dry Wt [5]: 4.7 g/plant | Nitrate N [5]: 0.10 Percentage of Dry Weight | Organic N [5]: 0.45 Percentage of Dry Weight | Organic S [5]: 0.25 Percentage of Dry Weight | Protein N [5]: 3.20 Percentage of Dry Weight
